Data as given in patent US20230292744A1, “FLYING PEST CONTROL COMPOSITION AND FLYING PEST CONTROL SPRAY” (Kao Corporation, priority 2019, published 2023).

Assays:
Type in all cases: physicochemical
[1] = Surface tension at 25° C. by the Wilhelmy method; conditions: 3 mmol/kg aqueous solution of the wetting agent, value 10 minutes after immersion
Source text: With respect to respective wetting agents described in Table 1, one obtained by dissolving each wetting agent in water to prepare an aqueous solution having a concentration of 3 mmol/kg was used as a measurement sample. With respect to a flying pest exterminating composition described of each of the Examples, the foregoing composition was used as it was as a measurement sample. These measurement samples were each poured into a glass-made Petri dish having a diameter of 6.4 cm and a depth of 3.8 cm, and after removing air bubbles on the water surface, the measurement was performed in the state that the resulting sample was allowed to stand still for 30 minutes or more. In the present measurement, using a surface tension balance “K100” (manufactured by KRÜSS GmbH), a platinum plate was kept immersed in the aforementioned aqueous solution in a depth of 1 mm, and a measured value 10 minutes after the immersion was taken as a value of the surface tension.

[2] = Reach amount of sprayed droplets; conditions: spray container A, horizontal distance 30 cm, per spraying (five trigger operations)
Description: A spray in which a 3 mmol/kg aqueous solution of the wetting agent shown in Table 1 was filled in a spray container A shown in Table 2 was prepared.
In the evaluation method described in the preceding section, one in which instead of the mesh net (3), a paper towel (“Kim Towel White”, manufactured by Nippon Paper Crecia Co., Ltd.) cut into a size of 6 cm×6 cm was stuck to the front face (11) of the frame (1) with a double-sided tape was prepared. Before the evaluation, the total weight of the frame (1) and the paper towel was measured, and then, the spray was fixed at a position where the horizontal distance d until the front face (11) of the frame (1) was 30 cm such that the tip of the spray nozzle (that is, the ejection port) (41) of the spray container (4) reached, and the trigger operation was performed five times toward the inside of the frame (1) to spray the aqueous solution. After spraying, the weights of the frame (1) and the paper towel were measured, and a reach amount of the sprayed droplets per spraying was calculated according to the following calculation equation.
(Reach amount of sprayed droplets (mg/cm^2 per time)={(Weights of frame and paper towel after spraying)−(Weights of frame and paper towel before spraying)}/(Area (36 cm^2) of paper towel)/(Spraying time (five times))
It can be judged that the wetting agent is one in which the larger the reach amount of sprayed droplets, the higher the straightness of the spray droplets when used for the flying pest exterminating composition, and the more excellent the action of capable of efficiently reaching the flying pests.

[3] = test system: Wings of Aedes albopictus (female); assay: Contact angle against wings of mosquito; conditions: 0.5 μL of 3 mmol/kg aqueous solution, 25° C., one second after dropping, θ/2 method
Source text: Wings of Aedes albopictus (female) were collected, and 8 to 10 pieces of the collected wings were arranged without generating gaps on a double-sided tape (“NITTO TAPE”, manufactured by Nitto Denko Corporation).

25° C. surface tension [1]	Reach amount of sprayed droplets of 3 mmol/kg aqueous solution [2]	Contact angle against wing of mosquito [3]	Molecule
38.30 mN/m	1.7 mg/cm^2	79.1 °	CCCCC(CC)COCC(O)CO (stereo not drawn) [e, 2-Ethylhexyl glyceryl ether]
31.82 mN/m	2.4 mg/cm^2	64.8 °	Polyoxyethylene(9) lauryl ether [c]
29.61 mN/m	1.7 mg/cm^2	55.0 °	C10-C14 alkyl glucoside [b]
50.54 mN/m	6.1 mg/cm^2	116.4 °	Polyoxyethylene(47) lauryl ether [j]
36.09 mN/m	2.6 mg/cm^2	71.9 °	Polyoxyethylene(12) lauryl ether [d]
32.68 mN/m	3.1 mg/cm^2	80.0 °	Benzalkonium chloride
26.13 mN/m	0.2 mg/cm^2	54.0 °	Polyoxyethylene(3) lauryl ether [i]
42.13 mN/m	3.2 mg/cm^2	113.8 °	Polyoxyethylene(19) lauryl ether [f]
27.34 mN/m	0.5 mg/cm^2	38.6 °	Polyoxyethylene(5) lauryl ether
29.20 mN/m	5.7 mg/cm^2	111.0 °	CCCCCCCCCCCCOS(=O)(=O)[O-].[Na+] [g, Sodium lauryl sulfate]
